# Source: patent publication US20140113958A1, “HCV Combination Therapy” (priority 2011, published 2014)
# Entries after “also recorded” stand apart in the source; their conditions may differ. Where two headings read alike, the source gives them in different places.
# Assays:
# Huh-luc/neo-ET cells = assay: Cellular toxicity by XTT dye reduction in Huh-luc/neo-ET cells
# Description: The anti-viral efficacy and cellular toxicity of non-transfected antimiR oligonucleotide in combination with approved and experimental anti-HCV therapeutics (e.g. NM283, 2′-C-methylcytidine, and/or VX-222) (or other NS5B polymerase inhibitors) was determined in the reporter cell line Huh-luc/neo-ET. This cell line harbors the persistently replicating I389luc-ubi-neo/NS3-3′/ET replicon containing the firefly luciferase gene-ubiquitin-neomycin phosphotransferase fusion protein and EMCV IRES driven NS3-5B HCV coding sequences containing the ET tissue culture adaptive mutations (E1202G, T1208I, and K1846T). Eight dilutions of non-transfected antimiR oligonucleotide (bracketing the calculated EC50) were evaluated in triplicate on duplicate sets of three plates with five dilutions of each of the control compounds (bracketing the calculated EC50). One set of plates was used for the determination of cellular toxicity and the other set of plates was used for the determination of anti-viral efficacy. The efficacy and toxicity results was quantified with firefly luciferase activity and XTT dye reduction, respectively, and the results of the assay is imported into the Prichard and Shipman MacSynergy II software program. The MacSynery II analysis includes calculation of the dose response of the two (or more) compounds when used alone followed by calculation of the expected additive level of antiviral inhibition or toxicity when the compounds are used together based on the individual dose response curves. The expected level of activity at each of the concentration data points was compared to the experimentally determined antiviral activity in the assay. The expected activity was subtracted from the realized activity, yielding a negative, zero or positive value. These values are plotted as a three dimensional representation of the data and the result is reported as a two-factor value, expressing the combined average above the expected level of activity (synergy volume) and the combined average below the expected level of activity (antagonism volume). Combination analysis was performed two or more times for each pair of test compound and control substance.
# The reporter cell line Huh-luc/neo-ET was obtained from Dr. Ralf Bartenschlager (Department of Molecular Virology, Hygiene Institute, University of Heidelberg, Germany) by ImQuest BioSciences. This cell line harbors the persistently replicating 1389luc-ubi-neo/NS3-3′IET replicon containing the firefly luciferase gene-ubiquitinneomycin phosphotransferase fusion protein and EMCV IRES driven NS3-5B HCV coding sequences containing the ET tissue culture adaptive mutations (E 1202G, T12081, and KI846T). A stock culture of the Huh-luc/neo-ET was expanded by culture in DMEM supplemented with 10% FBS, 2 mM glutamine, penicillin (100 IU/mL)/streptomycin (100 f·Ig/mL) and IX nonessential amino acids plus I mg/ml G418. Prior to plating, the cells were split 1:4 and cultured for two passages in the same medium plus 250 f·Ig/mL G418. The cells were treated with trypsin and enumerated by staining with trypan blue and seeded into 96-well tissue culture plates at a cell culture density 5.0×10^3 cells per well in a volume of 85 f·IL per well and incubated at […] in an environment of 5% CO2 for 24 hours. Six plates were established for the determination of combination efficacy (EC50) and cytotoxicity (TC50) for each of the compound combinations (three plates each for efficacy and toxicity). […]
# HCV = HCV RNA suppression in vivo
# all HCV genotypes = assay: Activity against HCV genotypes in vitro; assay type: cell-based
# HCV genotype 1 = assay: Phase 2a clinical trial, miravirsen monotherapy; assay type: in vivo, human; conditions: for mean of the maximum HCV RNA decline from baseline: 5 weekly doses subcutaneously over 29 days, chronic HCV genotype 1 patients
# Description: Thirty-six treatment-naïve chronic HCV genotype 1 infected patients were enrolled into 3 sequential dosing cohorts and received 5 weekly doses of miravirsen 3, 5, or 7 mg/kg (n=27) or placebo (n=9) subcutaneously over 29 days and were followed up until week 18.
# [1] = compared with interferon alpha-2b
# cytochrome 450 = assay: Metabolism by cytochrome 450 mechanisms; assay type: in vitro ADME
# [2] = system: HCV genotype 1b replicon NS3 R155K; assay type: cell-based; conditions: EC50 mutant / EC50 wild-type, mean of two experiments (individual values)
# Description: (§1) The in vitro antiviral of miravirsen was evaluated against wild-type HCV genotype 1b replicon and HCV genotype 1b replicons constructed to contain key amino acid substitutions in NS3 protease (A156T, R155K), NS5B polymerase (S282T, M423I) and NS5A protein (Y93H) in transient transfection assays utilizing Huh 7 cells. […] Huh 7 cells were transfected with either the wild-type or the mutant RNA constructs by electroporation. Luciferase activity was measured 72 hours after compound treatment and EC50 values determined from dose-response curves. Fold resistance was expressed as the ratio of the EC50 for mutant HCV replicon to the EC50 for wild-type HCV replicon.
# (§2) The in vitro antiviral of miravirsen was evaluated against wild-type HCV genotype 1b replicon and HCV replicons constructed to contain key amino acid substitutions in NS3 protease (A156T, R155K), NS5B polymerase (S282T, M423I) and NS5A protein (Y93H) in transient transfection assays. […] Huh 7 cells were transfected with either the wild type or the mutant RNA constructs by electroporation. Luciferase activity was measured 72 hours after compound treatment and EC50 values determined from dose-response curves. Fold resistance was expressed as the ratio of the EC50 for mutant HCV replicon to the EC50 for wild-type HCV replicon. Results are expressed as the mean of two individual experiments. In an initial set of experiments, the standard protocol was modified by adding compounds 24 hours after electroporation. […] In a third experiment cells were pretreated with miravirsen for 24 hours before electroporation with wild-type RNA constructs to determine if preincubation could result in increased miravirsen antiviral activity.
# [3] = system: HCV genotype 1b replicon NS3 A156T; assay type: cell-based; conditions: EC50 mutant / EC50 wild-type, mean of two experiments (individual values)
# Description: as §1, §2
# [4] = system: HCV genotype 1b replicon NS5A Y93H; assay type: cell-based; conditions: EC50 mutant / EC50 wild-type; mean of two experiments (individual values)
# Description: as §1, §2
# [5] = system: drug-resistant HCV genotype 1b replicons (NS3, NS5A, NS5B)
# Description: as §1
# The in vitro antiviral of miravirsen was evaluated against wild-type HCV genotype 1b replicon and HCV replicons constructed to contain key amino acid substitutions in NS3 protease (A156T, R155K), NS5B polymerase (S282T, M423I) and NS5A protein (Y93H) in transient transfection assays. […] Huh 7 cells were transfected with either the wild type or the mutant RNA constructs by electroporation. Luciferase activity was measured 72 hours after compound treatment and EC50 values determined from dose-response curves. Fold resistance was expressed as the ratio of the EC50 for mutant HCV replicon to the EC50 for wild-type HCV replicon. Results are expressed as the mean of two individual experiments. […]
# [6] = system: wild-type HCV genotype 1b replicon; assay: Transient transfection replicon assay in Huh 7 cells (luciferase, 72 hours), wild-type; assay type: cell-based
# [7] = chronic HCV genotype 1 infected patients
# [8] = in combination with ribavirin, 95% confidence level
# [9] = second drug in combination with miravirsen (SPC3649), 95% confidence interval, median or individual values
compound,measurement,setting,value
"5′-^mCs^ocsAs^otstsGs^oTs^ocsas^mCs^oas^mCs^ots^mCs^omC^o-3′ (CCATTGTCACACTCC; all phosphorothioate, sugars by position and methylation of C not given here; further chemistry not fully specified) [miravirsen]",CC50,"Huh-luc/neo-ET cells; read-out: CC50 (+/−SD), tested alone",> 158 µM
same,HCV RNA suppression in vivo,HCV,long-lasting HCV RNA suppression without emergence of resistance
same,activity against HCV genotypes in vitro,all HCV genotypes,activity against all HCV genotypes in vitro; also recorded: effective against all HCV genotypes in vitro
same,mean of the maximum HCV RNA decline from baseline,HCV genotype 1; 3 mg/kg,1.2 log10IU/mL
same,patients who achieved undetectable HCV RNA,HCV genotype 1; 5 mg/kg cohort,One
same,mean of the maximum HCV RNA decline from baseline,HCV genotype 1; 5 mg/kg,2.9 log10IU/mL
same,patients who achieved undetectable HCV RNA,HCV genotype 1; 7 mg/kg cohort,four
same,mean of the maximum HCV RNA decline from baseline,HCV genotype 1; 7 mg/kg,3.0 log10IU/mL
same,dose-limiting adverse events,"HCV genotype 1; 3, 5 or 7 mg/kg",no dose-limiting adverse events
same,escape mutations in the HCV genome miR-122 binding sites,"HCV genotype 1; 3, 5 or 7 mg/kg",no escape mutations were observed
same,emergence of viral resistance,HCV genotype 1; [7],not seen
same,reduction in HCV RNA,HCV genotype 1; [7],prolonged dose-dependent reductions in HCV RNA levels
same,safety and tolerability,HCV genotype 1; [7],"safe, well-tolerated"
same,reduction in HCV RNA,"HCV genotype 1; chronic HCV genotype 1 infected patients, listed as Miravirsen",dose-dependent reduction in HCV RNA that was prolonged well beyond the end of active therapy
same,HCV titre,HCV genotype 1; four week clinical trial to assess safety and tolerability,below detection
same,therapeutic index,[1],at least an order of magnitude greater than interferon alpha-2b
same,metabolism by cytochrome 450 mechanisms,cytochrome 450,not metabolized by cytochrome 450 mechanisms
same,"fold change in susceptibility, NS3 R155K",[2],"1.2 (1.9, 0.4) fold"
same,"fold change in susceptibility, NS3 A156T",[3],"1.0 (1.4, 0.5) fold"
same,"fold change in susceptibility, NS5A Y93H",[4],"0.9 (0.8, 0.9) fold"
same,fold changes in resistance,[5]; all drug-resistant HCV variants tested,less than 2 fold
same,antiviral activity against drug-resistant replicons,"[5]; replicons resistant to NS3, NS5A and NS5B inhibitors",broad antiviral activity
same,EC50,"[6]; Huh 7 cells preincubated with miravirsen 24 hours before electroporation with wild-type RNA, read-out: EC50",25.6 µM
same,EC50,"[6]; wild-type HCV, transient transfection assays, read-out: average EC50",36.7 µM
"CCC[C@H](NC(=O)[C@@H]1[C@H]2CCC[C@H]2CN1C(=O)[C@@H](NC(=O)[C@@H](NC(=O)c1cnccn1)C1CCCCC1)C(C)(C)C)C(=O)C(=O)NC1CC1 [Telaprevir, (1S,3aR,6aS)-2-[(2S)-2-[[(2S)-2-Cyclohexyl-2-(pyrazine-2-carbonylamino)acetyl]amino]-3,3-dimethylbutanoyl]-N-[(3S)-1-(cyclopropylamino)-1,2-dioxohexan-3-yl]-3,3a,4,5,6,6a-hexahydro-1H-cyclopenta[c]pyrrole-1-carboxamide]",impact of combination on in vitro cytotoxicity,Huh-luc/neo-ET cells; in combination with ribavirin,antagonistic interaction
same,"Cytotoxicity, Antag Vol",Huh-luc/neo-ET cells; [8],−50.9 μM^2%
same,"Cytotoxicity, Synergy vol",Huh-luc/neo-ET cells; [8],0.00 μM^2%
same,"Cytotoxicity, Antagonism vol",Huh-luc/neo-ET cells; [9],−5.05 μM^2%
same,"Cytotoxicity, Synergy vol",Huh-luc/neo-ET cells; [9],0 μM^2%
same,"fold change in susceptibility, NS3 R155K",[2],"4.6 (5.0, 4.2) fold"
same,"fold change in susceptibility, NS3 R155K",[2]; listed as telaprevir,4.6 fold
same,"fold change in susceptibility, NS3 A156T",[3],"36.1 (46.9, 25.2) fold"
same,"fold change in susceptibility, NS3 A156T",[3]; listed as telaprevir,36.1 fold
